Assay results published in patent publication US7071168B2, “Anti-cancer compounds and methods related thereto” (The Regents of the University of Colorado, priority 1998, dated 2006).

Key:
[1] = test system: SCLC strain SHP-77; experiment: Colorimetric tetrazolium (MTT) assay for cell survival, SCLC strain SHP-77; type: cell-based, human
Procedure, shortened: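 MTT assay: cells seeded overnight, treated in triplicate across a concentration range for 4 days at 37 °C, 5% CO2. On day 5, MTT was added for 4 h; formazan was dissolved in acidified isopropanol and absorbance read.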

[2] = test system: bradykinin response of isolated guinea pig ileum; experiment: Anti-bradykinin activity on isolated guinea pig ileum; conditions: for GPI: pA2 for bradykinin antagonist activity on isolated guinea pig ileum: higher numbers indicate higher potency
Procedure, shortened: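 Bradykinin concentration-effect curves were run in the absence and presence of compound. Tissue: 25 mm terminal ileum from male Hartley guinea pigs fasted overnight, held at 1 g tension in O2/CO2-bubbled Krebs' solution after 1 h equilibration.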

[3] = target: T1, cloned human bradykinin B2 receptors (Homo sapiens, UniProt P30411); experiment: Anti-bradykinin activity on cloned human B2 receptors (CHO cells, Cytosensor microphysiometer); type: cell-based; conditions: for HUMAN: pA2 for bradykinin antagonist potency on cloned human B2 receptors: higher numbers indicate higher potency
T1 sequence (P30411 1-391): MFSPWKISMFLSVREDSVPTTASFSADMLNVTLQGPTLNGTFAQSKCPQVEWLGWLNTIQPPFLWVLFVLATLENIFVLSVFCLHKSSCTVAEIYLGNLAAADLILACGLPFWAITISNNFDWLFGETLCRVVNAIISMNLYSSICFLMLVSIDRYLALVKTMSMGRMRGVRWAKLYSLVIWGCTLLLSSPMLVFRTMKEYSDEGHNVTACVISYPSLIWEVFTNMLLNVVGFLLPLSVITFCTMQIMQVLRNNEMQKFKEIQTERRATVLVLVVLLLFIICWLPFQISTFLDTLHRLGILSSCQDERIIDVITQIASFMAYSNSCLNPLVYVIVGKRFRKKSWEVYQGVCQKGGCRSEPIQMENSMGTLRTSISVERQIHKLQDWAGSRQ
Procedure: In general, Anti-bradykinin activity was determined by the classical guinea pig ileum assay and on Chinese hamster ovary (CHO) cells expressing cloned human bradykinin B2 receptors. Anti-tumor activity was determined on cultured human cancer cell lines using the standard tetrazolium (MTT) assay.
Chinese hamster ovary cells containing cloned and expressed human bradykinin B2 receptors were grown in cell cups of the Cytosensor microphysiometer in Ham's F-12 medium supplemented with sodium pyruvate and 10% FBS (Gibco 11765-054). For assay the cells were transferred to Ham's F-12 without bicarbonate or serum (Gibco 21700-075) and placed in the Cytosensor. Concentration-response curves were constructed to bradykinin in the presence or absence of new compounds.

[4] = test system: SCLC strain SHP-77; experiment: Inhibition of tumor growth in vivo in nude mice, SCLC strain SHP-77; conditions: for inhibition of growth in vivo of SCLC strain SHP-77: figure legends, nude mice, i.p. daily
Procedure: Representative peptide and non-peptide compounds having high in vitro cytotoxic activity were tested against implanted tumors in vivo. Athymic nude mice were implanted subcutaneously with either single cell suspensions (2 million SCLC cells or 1 million NSCLC cells) or with small fragments (3×3 mm) of tumors minced from previously grown nude mouse heterotransplants. On the seventh day after tumor implantation groups of 5 mice bearing implants were injected intraperitoneally daily with the compounds being tested at 1, 5, or 10 mg/kg/day; control animals were injected with an equal volume of isotonic saline. Tumor size was measured with a caliper three times per week. Tumor volume was calculated by the formula: Volume (cc)=π×(length)×(width)^2/6

[5] = isolated guinea pig ileum, pD2 of bradykinin is 7.4
[6] = cloned human B2 receptors, pD2 for bradykinin is 11

Compound | MTT: ED50 for killing of SCLC strain SHP-77 in vitro ([1]; SCLC strain SHP-77 in vitro) [µM] | GPI: pA2 for bradykinin antagonist activity on isolated guinea pig ileum [2, 5] | HUMAN: pA2 for bradykinin antagonist potency on cloned human B2 receptors [3, 6] | MTT: ED50 for killing of SCLC strain SHP-77 in vitro ([1]; Table 1, SHP-77, MTT, 4 days) | GPI: pA2 for bradykinin antagonist activity on isolated guinea pig ileum ([2]; Table 1) | HUMAN: pA2 for bradykinin antagonist potency on cloned human B2 receptors ([3]; Table 1) | other results
CC1(C)CC(NC(=O)C(Cc2cccnc2)NC(=O)C=Cc2c(F)c(F)c(F)c(F)c2F)CC(C)(C)N1 (stereo not drawn) [M438] | 26 | 4.8 | 10 | – | – | – | –
Cc1ccc(CSCC(NC(=O)C=Cc2c(F)c(F)c(F)c(F)c2F)C(=O)NC2CC(C)(C)NC(C)(C)C2)cc1 (stereo not drawn) [M456] | 4.7 | 5.3 | Inact | – | – | – | –
CN1CCN(NC(=O)C(Cc2ccc3ccccc3c2)NC(=O)C=Cc2c(F)c(F)c(F)c(F)c2F)CC1 (stereo not drawn) [M470] | 11 | 5.2 | Inact | – | – | – | –
CN1CCN(NC(=O)C(Cc2ccc3ccccc3c2)NC(=O)C=Cc2ccc(N(C)C)cc2)CC1 (stereo not drawn) [M472] | 25 | 5.3 | Inact | – | – | – | –
CC1(C)CC(NC(=O)C(Cc2csc3ccccc23)NC(=O)C=Cc2cccs2)CC(C)(C)N1 (stereo not drawn) [M476] | 15 | 4.6 | Inact | – | – | – | –
CN(C)c1ccc(C=CC(=O)NC(Cc2ccc3ccccc3c2)C(=O)N2CCSCC2)cc1 (stereo not drawn) [M478] | 30 | 5.1 | Inact | – | – | – | –
CN1CCN(NC(=O)C(Cc2ccc3ccccc3c2)NC(=O)c2cccc(NC(=O)C=Cc3c(F)c(F)c(F)c(F)c3F)c2)CC1 (stereo not drawn) [M492] | 45 | 5.1 | Inact | – | – | – | –
CN(C)CCCNC(=O)C(Cc1ccc2ccccc2c1)NC(=O)C=Cc1c(F)c(F)c(F)c(F)c1F (stereo not drawn) [M526] | 10 | 5.4 | Inact | – | – | – | –
CN(C)c1ccc(C=CC(=O)NC(Cc2ccc(OCc3c(Cl)cccc3Cl)cc2)C(=O)NC2CC(C)(C)NC(C)(C)C2)cc1 (stereo not drawn) [M582] | 3 | 5.4 | 9.5 | – | – | – | –
COC(=O)CCCCCCCCC(=O)Nc1ccc(C=CC(=O)NC(C(=O)NC2CC(C)(C)NC(C)(C)C2)C2Cc3ccccc3C2)cc1 (stereo not drawn) [M586-A] | 15 | 5.3 | 12 | – | – | – | –
CN(C(=O)C=Cc1c(F)c(F)c(F)c(F)c1F)C(Cc1ccc(OCc2c(Cl)cccc2Cl)cc1)C(=O)NC1CC(C)(C)NC(C)(C)C1 (stereo not drawn) [M594] | 3.7 | 5.0 | 8 | – | – | – | –
O=C(C=Cc1ccc(NC(=O)CCCCCCCCCCC(=O)Nc2ccc(C=CC(=O)NC(Cc3ccc4ccccc4c3)C(=O)NC3CCNCC3)cc2)cc1)NC(Cc1ccc2ccccc2c1)C(=O)NC1CCNCC1 (stereo not drawn) [M606] | 30 | 5.0 | 10 | – | – | – | –
DArg-Arg-Pro-Hyp-Gly-Igl-Ser-DIgl-Oic-Arg [B9430, reference compound] | – | – | – | 120 µM | 8.2 | – | pA2 (antagonist) on guinea pig ileum ([2]; text of Example XVII): 7.9; pA2 (antagonist) on cloned human B2 receptors ([3]; text of Example XVIII): 10.5; inhibition of growth in vivo of SCLC strain SHP-77 [4]: inhibition of growth
DDD-(Arg-DIgl-Oic-Arg)2 [M226] | – | – | – | 35 µM | 5.7 | Inact | –
DDD-(DArg-2Nal-Arg-NH2)2 [M510] | – | – | – | 8 µM | Inact | 11 | –
DDD-(DArg-Arg-Aud-Pac-2Nal-Arg)2 [M516] | – | – | – | 1.4 µM | 0 | Ag | –

Compound | MTT: ED50 for killing of SCLC strain SHP-77 in vitro ([1]; SCLC strain SHP-77 in vitro) [µM] | GPI: pA2 for bradykinin antagonist activity on isolated guinea pig ileum [2, 5] | HUMAN: pA2 for bradykinin antagonist potency on cloned human B2 receptors [3, 6] | MTT: ED50 for killing of SCLC strain SHP-77 in vitro ([1]; Table 1, SHP-77, MTT, 4 days) | GPI: pA2 for bradykinin antagonist activity on isolated guinea pig ileum ([2]; Table 1) | HUMAN: pA2 for bradykinin antagonist potency on cloned human B2 receptors ([3]; Table 1) | other results
DDD-(DArg-F5F-Arg)2 [M822] | – | – | – | 25 µM | Mixed | – | inhibition of growth in vivo of SCLC strain SHP-77 [4]: inhibition of growth
DDD-(DArg-Igl-Arg-Matp)2 [M638] | 0.6 | Inact | – | – | – | – | inhibition of growth in vivo of SCLC strain SHP-77 [4]: inhibition of growth
DDD-(Lys-DArg-Arg-Pro-Hyp-Gly-Igl-Ser-DIgl-Oic-Arg)2 [B10054] | – | – | – | 0.3 µM | 7.1 | – | inhibition of growth of the SCLC line SHP-77 ([4]; dose of 5 mg/kg/day): marked inhibition of growth; inhibition of growth in vivo of SCLC strain SHP-77 [4]: inhibition of growth
DDD-(Lys-Pac-Gly-mABz-2Nal-NH2)2 [M494] | – | – | – | 33 µM | 5.1 | Inact | –
DDD-(Pac-2Nal-Arg)2 [M484] | – | – | – | 25 µM | Inact | Inact | –
DDD-(Pac-2Nal-Arg-NH2)2 [M498] | – | – | – | 24 µM | 4.9 | Inact | –
DDD-(pABz-2Nal-Arg)2 [M400] | – | – | – | 22 µM | 5.1 | 11.5 | –
DDD-(pABz-2Nal-Arg-NH2)2 [M500] | – | – | – | 40 µM | 0 | 11.4 | –
F5c-2Nal-Arg [M446] | – | – | – | 60 µM | 4.7 | 9 | –
F5c-2Nal-Arg-NH2 [M450] | – | – | – | 26 µM | 4.9 | Inact | –
F5c-OBS-Arg [M520] | – | – | – | Inact | 6.1 | 7 | –
F5c-OBT-Arg [M550] | – | – | – | 80 µM | Inact | Ag | –
F5c-OC2Y-Arg [M512] | – | – | – | 70 µM | 5.7 | 11 | –
F5c-hPhe-Arg [M420] | – | – | – | 60 µM | 7.0 | 10.9 | –
α-DDD-(Lys-B9430-OMe)2 [M600] | – | – | – | 1.2 µM | 6.4 | Ag | –
